Experimental data as given in PMC8648852, “Pyrazoline derivatives as promising novel antischistosomal agents” (Scientific Reports, 2021).

What was measured:
S. mansoni adult worm = assay: In vitro antischistosomal assay (viability of ex vivo adult worms); type: cell-based, Schistosoma mansoni; conditions: for Time until all parasites were dead: 50 μM; for Antiparasitic activity in initial screen: 50 µM, after 72 h, adult worms; for EC50: 72 h, ex vivo adult schistosomes, brackets = 95% confidence interval
Experimental: For biological screening, S. mansoni adult parasites were isolated from the mouse infection model (parasite ex vivo) and all compounds were initially screened at 50 µM. The gold-standard antiparasitic compound praziquantel was used as a positive control and DMSO at 0.5% v/v (representing the highest concentration of solvent) served as a negative control. […] For the remaining compounds tested, no EC50 values could be calculated due to lack of activity at 50 μM. […] In tandem, our findings confirm that pyrazolines have a potent antiparasitic activity. Indeed, few compounds in the literature are active at low concentrations for review see[11],[19]. According to criteria established by the World Health Organization (WHO) for antiparasitic hits, leads, and drug candidates, at the start of a screening campaign a compound should inhibit mobility of helminths in vitro at 10 μg/mL[20], commonly ranging from 30 to 40 μM. Thus, the anthelminthic activity of pyrazolines surpasses criteria established by the WHO.
(§1) Adult schistosomes (BH strain) were isolated from infected mice and cultured in RPMI medium + 10% fetal calf serum and 100 U/mL penicillin and 100 μg/mL streptomycin in a 24-well culture plate (Corning, New York, NY, USA) containing one pair of parasites per well at 37 °C and 5% CO2 (Panasonic Healthcare, Sakata, Oizumi-machi, Japan)[38],[39]. For antischistosomal assay, compounds were dissolved in DMSO (final concentration of 0.5% v/v). Each drug concentration was tested at least in triplicate, and the experiments were repeated three times. The initial concentration of the pyrazolines and praziquantel was 50 μM and 3 μM, respectively, which was serially diluted in medium with twofold dilutions to give six concentrations[40],[41]. The negative control worms were assayed in RPMI 1640 medium and RPMI 1640 with 0.5% DMSO. Parasites were monitored daily at 24, 48 and 72 h under a stereomicroscope (Leica Microsystems EZ4E, Wetzlar, Germany) and an inverted microscope (BEL Engineering INV 100, Monza, MB, Italy). Egg production was evaluated daily as previously described. Parasite viability was averaged and 50% effective concentrations (EC50) were calculated using GraphPad Prism software[24],[43].

[1] = Cytotoxicity assay (MTT), Vero cells; type: cell-based, African green monkey; conditions: African green monkey, Vero cells (African green monkey kidney cells); Vero cells, 72 h, MTT; brackets = 95% confidence interval
Experimental: (§2) The selectivity index (SI) of a compound is a widely accepted parameter used to express a drug’s in vitro efficacy. Therefore, the cytotoxic effect of these six pyrazolines (16, 18, 19, 21, 22 and 23) was evaluated using a monkey cell line (Vero) and a human cell line (SH-SY5Y). Cells were incubated with each compound at a range of concentrations for determination of cytotoxic concentrations 50% (CC50). […] With the EC50 data collected for schistosomes as well as the CC50 for animal and human cells, the selectivity indices (SI) were determined for each of the pyrazolines tested (Table 1). […] A SI value ≥ 10 is in accordance with the criteria defined by the WHO for antiparasitic hits, leads, and drug candidates. […] Comparatively, the SI values achieved with pyrazolines exceeded those obtained for other relevant heterocyclic compounds with antischistosomal properties[21],[22]. Although the SI values recorded for pyrazolines were more than 10 times below those for the reference drug praziquantel, a SI value ≥ 10 fulfills and exceeds the criteria established by the WHO for potential compounds as anthelmintic agents. The cytotoxicity of compounds was tested against Vero cells (African green monkey kidney cells obtained from the American Type Culture Collection, ATCC; Manassas, VA, USA) and SH-SY5Y cells (human neuroblastoma obtained from Banco de Células do Rio de Janeiro, BCRJ, RJ, Brazil). Cells was cultured in DMEM medium supplemented with 10% fetal calf serum, penicillin (100 U/mL) and streptomycin (100 µg/mL) and 2 mM of L-glutamine at 37 °C and in a 5% CO2 humidified incubator (Panasonic). The DMEM contained 1 or 4 mg/mL glucose for Vero and SH-SY5Y cells, respectively. Cytotoxicity assay was performed as previously described[25],[26]. Briefly, cells were seeded in 96-well plates (Corning) in DMEM medium and incubated with twofold serial drug starting at 200 μM following a 24 h adhesion period at 37 °C in 5% CO2. After 72 h, MTT was added and incubation was continued for another 3 h. The plate was then read using spectrophotometer (Epoch Microplate Spectrophotometer, BioTek Instruments, Winooski, VT, USA) at 595 nm. The assay was conducted in duplicate and repeated three times. Values were expressed as percentage of the control and 50% cytotoxic concentration (CC50) values were calculated. The selectivity indices (SI) of tested compounds were calculated by dividing CC50 values obtained on mammalian cells with EC50 values determined on S. mansoni.

Vero cells = assay: Cytotoxicity assay (MTT), Vero cells; type: cell-based, African green monkey; conditions: CC50 (Vero) divided by EC50 (S. mansoni)
Experimental: as §2

[2] = Cytotoxicity assay (MTT), SH-SY5Y cells; type: cell-based, human; conditions: human, SH-SY5Y cells (human neuroblastoma); SH-SY5Y cells, 72 h, MTT
Experimental: as §2

SH-SY5Y cells = assay: Cytotoxicity assay (MTT), SH-SY5Y cells; type: cell-based, human; conditions: CC50 (SH-SY5Y) divided by EC50 (S. mansoni)
Experimental: as §2

[3] = test system: paired adult schistosomes (S. mansoni); assay: Egg production (fecundity) of paired adult schistosomes in vitro; type: cell-based, Schistosoma mansoni; conditions: sublethal concentrations (6.25 μM for 16, 12.5 μM for 19 and 23), compared to control
Experimental: Based on antischistosomal properties of pyrazolines 16, 18, 19, 21, 22 and 23, the ability of these six compounds to affect fecundity (egg production) was subsequently measured. […] To further investigate this effect on schistosome fecundity, parasites were tested using sublethal concentrations (3.5 μM for compound 22, 6.25 μM for compound 16, and 12.5 μM for compounds 18, 19, 21, and 23).
as §1

CCCCCCCCCOc1ccc(C2CC(c3ccccc3)=NN2C(N)=O)cc1 (stereo not drawn) [Compound 16, 4,5-dihydro-5-(4-(nonyloxy)phenyl)-3-phenylpyrazole-1-carboxamide]
Death of all worms within 24 h (S. mansoni adult worm; 25 μM, 24 h): death of all worms
Time until all parasites were dead (S. mansoni adult worm): ≤ 24 h
Antiparasitic activity in initial screen (S. mansoni adult worm): showed antiparasitic activity
EC50 (S. mansoni adult worm; Schistosoma mansoni): < 20 µM
EC50 (S. mansoni adult worm): 13.8 µM
CC50 at 72 h [1]: 155 µM
Monkey cells SI (selectivity index) (Vero cells): 11.2
CC50 at 72 h [2]: > 200 µM
Human cells SI (selectivity index) (SH-SY5Y cells): > 14.5
Reduction in the number of eggs [3]: 30–70%

Cc1ccc(C2CC(c3ccc(F)cc3)=NN2C(N)=O)cc1 (stereo not drawn) [Compound 19, 3-(4-fluorophenyl)-4,5-dihydro-5-p-tolylpyrazole-1-carboxamide]
Time until all parasites were dead (S. mansoni adult worm): ≤ 24 h
Antiparasitic activity in initial screen (S. mansoni adult worm): showed antiparasitic activity
EC50 (S. mansoni adult worm; Schistosoma mansoni): < 20 µM
EC50 (S. mansoni adult worm): 17.4 µM
CC50 at 72 h [1]: 169 µM
Monkey cells SI (selectivity index) (Vero cells): 9.7
CC50 at 72 h [2]: > 200 µM
Human cells SI (selectivity index) (SH-SY5Y cells): > 11.5
Reduction in the number of eggs [3]: 30–70%

CCCCCCOc1ccc(C2CC(c3ccccc3)=NN2C(N)=S)cc1 (stereo not drawn) [Compound 23, 4,5-dihydro-5-(4-(hexyloxy)phenyl)-3-phenylpyrazole-1-carbothioamide]
Time until all parasites were dead (S. mansoni adult worm): 72 h
Antiparasitic activity in initial screen (S. mansoni adult worm): showed antiparasitic activity
EC50 (S. mansoni adult worm; Schistosoma mansoni): 28.2 µM
CC50 at 72 h [1]: > 200 µM
Monkey cells SI (selectivity index) (Vero cells): > 7.1
CC50 at 72 h [2]: > 200 µM
Human cells SI (selectivity index) (SH-SY5Y cells): > 7.1
Reduction in the number of eggs [3]: 30–70%
